{"source": "ChEMBL document CHEMBL1250439", "about": "“2-phenyl-1-[4-(2-piperidine-1-yl-ethoxy)benzyl]-1H-benzimidazoles as ligands for the estrogen receptor: synthesis and pharmacological evaluation” (Bioorg Med Chem, 2010)", "key": {"MCF7 [1]": {"system": "MCF7", "test": "Cytostatic activity against human MCF7 cells at 10 uM after 3 days by microtiter assay", "type": "functional"}, "[2]": {"molecular_target": "Estrogen receptor beta (Homo sapiens) (UniProt Q92731)", "sequence (Q92731 whole entry)": "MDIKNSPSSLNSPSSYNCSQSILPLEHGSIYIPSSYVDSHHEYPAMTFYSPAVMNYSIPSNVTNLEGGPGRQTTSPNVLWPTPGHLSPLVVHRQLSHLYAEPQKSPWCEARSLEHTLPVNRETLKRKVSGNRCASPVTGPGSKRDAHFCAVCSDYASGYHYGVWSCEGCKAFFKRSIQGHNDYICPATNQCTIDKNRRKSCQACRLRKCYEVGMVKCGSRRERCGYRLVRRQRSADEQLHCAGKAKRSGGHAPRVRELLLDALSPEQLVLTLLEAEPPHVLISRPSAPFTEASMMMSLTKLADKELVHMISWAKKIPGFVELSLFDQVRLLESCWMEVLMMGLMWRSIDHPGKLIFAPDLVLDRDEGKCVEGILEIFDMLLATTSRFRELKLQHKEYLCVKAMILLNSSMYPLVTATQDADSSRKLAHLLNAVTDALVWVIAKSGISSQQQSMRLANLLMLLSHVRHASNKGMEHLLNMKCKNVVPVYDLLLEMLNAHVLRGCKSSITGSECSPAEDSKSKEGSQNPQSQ", "test": "Displacement of [3H]E2 from human estrogen receptor beta relative to control"}, "MCF7 [3]": {"system": "MCF7", "test": "Cytostatic activity against human MCF7 cells at 5 uM after 3 days by microtiter assay", "type": "functional"}, "[4]": {"molecular_target": "T1, Estrogen receptor (Homo sapiens) (UniProt P03372)", "T1 sequence (whole entry)": "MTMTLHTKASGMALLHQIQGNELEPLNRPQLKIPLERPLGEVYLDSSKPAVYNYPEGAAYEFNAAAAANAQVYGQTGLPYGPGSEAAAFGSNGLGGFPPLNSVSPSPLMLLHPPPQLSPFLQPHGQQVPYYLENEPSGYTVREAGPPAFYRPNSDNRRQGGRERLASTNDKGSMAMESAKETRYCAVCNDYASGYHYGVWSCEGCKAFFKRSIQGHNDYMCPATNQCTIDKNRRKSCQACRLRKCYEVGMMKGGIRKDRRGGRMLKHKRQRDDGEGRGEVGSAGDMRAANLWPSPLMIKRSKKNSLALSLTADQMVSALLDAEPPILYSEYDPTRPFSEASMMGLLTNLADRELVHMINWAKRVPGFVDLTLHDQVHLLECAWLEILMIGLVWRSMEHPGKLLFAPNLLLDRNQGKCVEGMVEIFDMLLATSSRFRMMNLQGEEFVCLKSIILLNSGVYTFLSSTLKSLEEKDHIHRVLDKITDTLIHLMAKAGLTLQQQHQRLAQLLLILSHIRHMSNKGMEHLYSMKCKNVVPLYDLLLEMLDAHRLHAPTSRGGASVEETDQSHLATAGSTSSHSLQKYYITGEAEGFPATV", "test": "Displacement of [3H]E2 from human estrogen receptor alpha relative to control"}, "MCF7 [5]": {"system": "MCF7", "test": "Cytostatic activity against human MCF7 cells at 1 uM after 3 days by microtiter assay", "type": "functional"}, "Calf thymus DNA": {"system": "Calf thymus DNA", "test": "Binding affinity to calf thymus DNA assessed as change in melting temperature", "type": "nucleic-acid assay", "settings": "Bos taurus"}, "Adenosine receptor A1": {"molecular_target": "T2, Adenosine receptor A1 (Rattus norvegicus, UniProt P25099)", "T2 sequence (P25099 whole entry)": "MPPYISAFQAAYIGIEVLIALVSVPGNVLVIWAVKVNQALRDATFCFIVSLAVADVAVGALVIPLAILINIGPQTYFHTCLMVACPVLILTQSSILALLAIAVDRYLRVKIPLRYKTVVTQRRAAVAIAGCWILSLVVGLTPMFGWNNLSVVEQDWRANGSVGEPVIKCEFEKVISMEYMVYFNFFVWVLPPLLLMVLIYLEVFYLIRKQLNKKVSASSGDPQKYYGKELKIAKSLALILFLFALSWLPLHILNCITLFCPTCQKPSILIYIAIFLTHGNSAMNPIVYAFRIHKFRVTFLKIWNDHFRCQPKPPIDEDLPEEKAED", "test": "Displacement of [3H]CCPA from adenosine A1 receptor in rat brain cortical membrane", "type": "cell membranes"}, "MDA-MB-231": {"system": "MDA-MB-231", "test": "Cytostatic activity against human MDA-MB-231 cells after 3 days by microtiter assay", "type": "functional, cell-based"}, "Estrogen receptor [6]": {"molecular_target": "T3, Estrogen receptor (Homo sapiens, UniProt P03372)", "T3 sequence (P03372 whole entry)": "T1 sequence (whole entry)", "test": "Antagonist activity at human ERalpha expressed in human MCF7 cells at 10 uM by luciferase reporter gene assay", "type": "functional, cell-based"}, "Estrogen receptor [7]": {"molecular_target": "T3, Estrogen receptor", "test": "Antagonist activity at human ERalpha expressed in human MCF7 cells by luciferase reporter gene assay", "type": "functional, cell-based"}}, "note": "Active and inactive are the calls of the source. No cut-off for these calls is given here."}
{"smiles": "Oc1ccc2c(c1)nc(-c1ccccc1)n2Cc1ccc(OCCN2CCCCC2)cc1", "values": [{"measurement": "T/C", "setting": "MCF7 [1]", "result": "<0", "unit": "%"}, {"measurement": "RBA", "setting": "[2]", "result": 0.54, "unit": "%"}, {"measurement": "T/C", "setting": "MCF7 [3]", "result": 0, "unit": "%"}, {"measurement": "RBA", "setting": "[4]", "result": 0.43, "unit": "%"}, {"measurement": "T/C", "setting": "MCF7 [5]", "result": 50, "unit": "%"}, {"measurement": "ΔTm", "setting": "Calf thymus DNA", "result": 3, "unit": "°C"}]}
{"smiles": "Oc1ccc(-c2nc3cc(O)ccc3n2Cc2ccc(OCCN3CCCCC3)cc2)cc1", "values": [{"measurement": "Ki", "setting": "Adenosine receptor A1", "result": 3.7, "unit": "µM"}, {"measurement": "ΔTm", "setting": "Calf thymus DNA", "result": 3, "unit": "°C"}]}
{"smiles": "Oc1ccc(-c2nc3ccc(O)cc3n2Cc2ccc(OCCN3CCCCC3)cc2)cc1", "values": [{"measurement": "Ki", "setting": "Adenosine receptor A1", "result": "≤ 3.7", "unit": "µM"}, {"measurement": "ΔTm", "setting": "Calf thymus DNA", "result": 3, "unit": "°C"}]}
{"smiles": "CCC(=C(c1ccc(O)cc1)c1ccc(OCCN(C)C)cc1)c1ccccc1", "values": [{"measurement": "Activity", "setting": "MCF7 [1]", "result": "inactive"}, {"measurement": "Activity", "setting": "MDA-MB-231", "result": "Active"}, {"measurement": "T/C", "setting": "MCF7 [3]", "result": 0, "unit": "%"}]}
{"smiles": "Oc1ccc(-c2nc3ccccc3n2Cc2ccc(OCCN3CCCCC3)cc2)cc1", "values": [{"measurement": "T/C", "setting": "MCF7 [1]", "result": "<0", "unit": "%"}, {"measurement": "IC50", "setting": "Estrogen receptor [6]", "result": 5.1, "unit": "µM"}, {"measurement": "T/C", "setting": "MCF7 [3]", "result": 0, "unit": "%"}, {"measurement": "T/C", "setting": "MCF7 [5]", "result": 50, "unit": "%"}, {"measurement": "ΔTm", "setting": "Calf thymus DNA", "result": 3, "unit": "°C"}]}
{"smiles": "Oc1ccc2nc(-c3ccccc3)n(Cc3ccc(OCCN4CCCCC4)cc3)c2c1", "values": [{"measurement": "T/C", "setting": "MCF7 [1]", "result": "<0", "unit": "%"}, {"measurement": "IC50", "setting": "Estrogen receptor [7]", "result": 0.31, "unit": "µM"}, {"measurement": "T/C", "setting": "MCF7 [3]", "result": 0, "unit": "%"}, {"measurement": "T/C", "setting": "MCF7 [5]", "result": 50, "unit": "%"}, {"measurement": "ΔTm", "setting": "Calf thymus DNA", "result": 3, "unit": "°C"}]}
{"smiles": "CC/C(=C(\\c1ccccc1)c1ccc(OCCN(C)C)cc1)c1ccccc1", "note": "[TAMOXIFEN]", "values": [{"measurement": "Activity", "setting": "MCF7 [1]", "result": "inactive"}, {"measurement": "Activity", "setting": "MDA-MB-231", "result": "Active"}, {"measurement": "T/C", "setting": "MCF7 [3]", "result": 0, "unit": "%"}]}
{"smiles": "O=C(c1ccc(OCCN2CCCCC2)cc1)c1c(-c2ccc(O)cc2)sc2cc(O)ccc12", "note": "[RALOXIFENE]", "values": [{"measurement": "Activity", "setting": "MCF7 [1]", "result": "inactive"}, {"measurement": "Activity", "setting": "MDA-MB-231", "result": "Active"}, {"measurement": "T/C", "setting": "MCF7 [3]", "result": 0, "unit": "%"}]}
